# How the values were obtained:
# LP1 cells [1] = assay: Growth inhibition of plasma cell line (cell count and thymidine incorporation); format: cell-based, human
# Method: (§1) The human myeloma cell lines were purchased from DMS (Braunschweig, Germany) (NCI H929 and LP1) and from American Type Culture Collections (Rockville, MD) (OPM2 and U266). NCI, OPM2, U266 (and all studied non plasmacytic cell lines) were cultured in RPMI 1640 supplemented with 1% penicillin/streptomycin, 1 mmol/L L-glutamine and 10% heat-inactivated fetal calf serum at 37°C, 5% CO2 in air. LP1 cells were cultured in similar conditions, in Iscove's medium.
# (§2) Cells were incubates with or without 10^-5 to 10^-8 mol/L melarsoprol up to 96 hours, without any adjustment after culture initiation. Cell number and viability were determined by trypan blue exclusion. Morphologic analysis was performed using Wright-Giema and DAPI (4'-6-diamidino-2-phenylindole) staining on cytocentrifuge preparations. For proliferation assays, aliquots of 2x10^4 cells in triplicate were incubated in 96-well plates and 3H-thymidine (3H-TdR) (1 µCi) was added for the final 8 hours of the culture period. Cells were harvested onto glass filter and ^3H-TdR incorporation was counted on a liquid scintillation counter.
# (§3) The growth of NCI, U266, OPM2 and LP1 plasma cell lines in medium alone or in the presence of melarsoprol (10^-5 to 10^-8 mol/L) was assessed by cell count and thymidine incorporation.
# NCI cells [2] = assay: as above; format: cell-based, human
# Method: as §1, §2, §3
# OPM2 cells = assay: as above; format: cell-based, human
# Method: as §1, §2, §3
# U266 = assay: as above; format: cell-based, human; settings: U266 cells
# Method: as §1, §2, §3
# LP1 cells [3] = assay: Cell survival by trypan blue exclusion; format: cell-based, human; settings: LP1, after 48 hours, 10-6 mol/L melarsoprol
# Method: as §1, §2
# (§4) Treatment of plasma cell lines with melarsoprol led to a dose- and time dependent inhibition of cell survival, as determined using trypan blue exclusion. After 48 hours, in the presence of 10-6 mol/L melarsoprol , percentage of trypan blue negative cells were 15 ± 7.2, 56 ± 11, 62 ± 5 8, and 81 ± 6.8% in NCI, OPM2, U266 and LP1 cells, respectively. Cell death was mainly due to apoptosis, as shown by the characteristic morphological changes in nuclei as well as by the TUNEL method.
# NCI = assay: Cell survival by trypan blue exclusion; format: cell-based, human; settings: after 48 hours, 10-6 mol/L melarsoprol
# Method: as §1, §2, §4
# OPM2 = assay: Cell survival by trypan blue exclusion; format: cell-based, human; settings: OPM2, after 48 hours, 10-6 mol/L melarsoprol
# Method: as §1, §2, §4
# NCI cells [4] = assay: DNA fragmentation by agarose gel electrophoresis of genomic DNA; format: cell-based, human; settings: NCI cells treated with 10^-6 mol/L
# NCI cells [5] = assay: FACS analysis after annexin-V and propidium iodide staining; format: cell-based, human; settings: 10^-6 mol/L
# Method: (§5) Direction of phosphatidylserine on the outer leaflet of apoptotic cells was performed using Annexin-V-FLUOS (Boehringer Mannheim, Germany) and propidium iodide (PI) according to the manufacturer's recommendations. Expression of cell surface CD38, CD138 (BB-4° and CD15 antigens was studied using corresponding fluorescein isothiocyanate (FITC) or phycierythrin conjugated antibodies that were purchased from Diaclone (Besançon, France) and Becton Dickinson (San Jose, Ca.). Flow cytometry was performed with a FACSean apparatus (Beckton Dickinson).
# (§6) FACS analysis of NCI and U266 cells after staining with fluorescein-labelled annexin-V and propidium iodide was performed to detect the translocation of phosphatidylserine from the inner part of plasma membrane to the outer layer which accurs in the early stages of apoptosis. Before staining, cells were cultivated with medium alone) melarsoprol (10^-6 mol/L) or dexamethasone (Dex, 10^-6 mol/L) over a time period of 48 hours. […] During the same time; the number of double positive necrotic cells increased and, at 18 hours, only very few double-negative living cells were detectable. Apoptosis was moderate in cells cultured with Dex and in control culture. Annexin-positive, PI-negative apoptotic U266 cells were also observed in the presence of melarsoprol (18% of residual cells after a 18-hour culture).
# U266 cells = assay: as above; format: cell-based, human; settings: 10^-6 mol/L, 18-hour culture
# Method: as §5, §6
# [6] = system: plasma-cell enriched preparations of myeloma patients; assay: Viability (trypan blue exclusion) of fresh myeloma cells; format: cell-based, human; settings: 48 hours, n=4 (40 to 77.5%); 10.5 ± 14.7% without the drug
# Text: (§7) Eleven patients with multiple myeloma (MM) or plasma cell leukemia (PCL) were studied after informed consent. Mononuclear cells were separated by Ficoll-Hypaque centrifugation from peripheral blood of 4 patients with PCL (including 2 with a primary PCL), from bone marrow (BM) of 6 patients with MM (including 4 at diagnosis) and from the pleural effusion of a newly diagnosed myeloma patient. Plasma cell-enriched preparations were obtained by centrifugation of mononuclear cells on a Percoll gradient, as previously described (Iwato K, et al, Blood 72:562, 1988). Plasma cell percentages were determined after intracytoplasmic staining using fluorescein-conjugated antibodies to human immunoglobulin (Ig) heavy and light chains (from Nordic, Tilburg, The Netherlands).Short-term cultures of blood and BM mononuclear cells and of plasma cell-enriched preparations were performed in RPMI 1640, in similar conditions as cell lines.
# as §2, with “For proliferation assays, aliquots of 2x10^4 cells in triplicate were incubated in 96-well plates and 3H-thymidine (3H-TdR) (1 µCi) was added for the final 8 hours of the culture period.” left out, “counter. […]” for “counter.”
# [7] = system: plasma-cell enriched preparations of myeloma patients; assay: Growth (3H TdR uptake) of fresh myeloma cells; format: cell-based; settings: Homo sapiens; three plasma-cell preparations; read-out: IC50 (inhibition of cell growth)
# Text: as §7
# as §2, with “For proliferation assays, aliquots of 2x10^4 cells in triplicate were incubated in 96-well plates and 3H-thymidine (3H-TdR) (1 µCi) was added for the final 8 hours of the culture period.” left out, “counter. […]” for “counter.”
# [8] = system: myeloid cells (CD38^low, CD15 +); assay: FACS analysis of patients' bone marrow mononuclear cells (annexin V with CD38 or CD15); format: cell-based, human
# Text: as §7, §5
# (§8) To comparatively assess the effects of melarsoprol on myeloid and plasma cells, bone marrow mononuclear cells obtained from patients with newly diagnosed multiple myeloma were cultured for 5 days in the presence of 10^-6 mol/L melarsoprol. […] Indeed, in a representative study a bone marrow sample initiality containing 30% of plasma cells (CD38^higt +), 12% of the latter expressed annexin V after 2 days of culture with 10^-6 mol/L melarsoprol, whereas less than 1% of myeloid cells (CD38^low, CD15 +) were positive for the apoptosis marker. At day 5, the plasma cell number had much more decreased than the myeloid cell number and viable cells (propidium iodide negative) contained 7.8 % of CD38^higt positive cells, as compared to 22.5 % in control culture, performed with medium alone. CD15+ myelo-monocytic cell percentages were similar in arsenic-exposed cultures and in controls, with a decrease in the CD15^low+ fraction.
# [9] = system: plasma cells (CD38^higt +); assay: as above; format: cell-based, human
# Text: as §7, §5, §8
# [10] = system: Mononuclear cells purified from peripheral blood of normal donors; assay: Pokeweed mitogen (PWM)-induced plasma cell differentiation of normal lymphocytes; format: cell-based, human; settings: 10^-6 mol/L and 5 x10^-7 mol/L
# Method: Mononuclear blood cells of 3 normal donors were cultured in the presence of PWM (from Life Technology, Cergy Pontoise, diluted at 1/100) and melarsoprol (5 x 10^-7 or 10^-6 mol/L). Plasma cells were numerated at day 7 after immunofluorescence staining with fluorescein-conjugated antibodies directed against human Ig chains, IgM concentrations in supernatants were also measured at day 5, by ELISA, as previously described (Grillot-Courvalin C et al, Scand. J. Immunol. 23:679, 1986).
# Mononuclear cells purified from peripheral blood of normal donors were incubated with pokeweed mitogen in the presence of two different concentrations (10^-6 mol/L and 5 x10^-7 mol/L) of the organic or of the inorganic arsenical.
# human myeloma cells = assay: SCID mice transplanted with human myeloma cells: efficacy; format: in vivo; settings: 30µg/g 5 days a week IP, 30 to 40 days
# Method: The following studies of melarsoprol conducted in SCID mice transplanted with human myeloma cells confirm in vivo the in vitro effects of the arsenical compound.
# (§9) SCID mice were irradiated before the intra-peritoneal (IP) injection of 3 to 5*10^6 plasma cells purified from peripheral blood of patients with plasma cell leukemia. Engrafment was assessed by bi-monthly measurement of the human monoclonal immunoglobulin (HuMIg) concentration in mouse serum, using an ELISA.
# Mice injected with the cells from 3 different patients developed the human tumor and were treated with melarsoprol during 30 to 40 days.
# [11] = SCID mice transplanted with human myeloma cells: toxicity and arsenic amounts; format: in vivo; settings: any studied organ, especially the liver
# Method: as §9
# Arsenic amounts in mouse serum and tissues were in the expected 〈〈 pharmacological 〉〉 range.
# [12] = system: T, myeloid and epithelial cell lines; assay: Comparative example: growth of other hematopoietic cell types; format: cell-based
# Method: as §1, §2
# In addition to plasma cell, other hematopoietic cell types were also studied. The inhibition of growth was marginal in T, myeloid and epithelial cell lines.
# myeloma cells = assay: Growth and survival of myeloma cells (summary statement); format: cell-based, human
# Text: According to the present invention, melarsoprol reduces the growth and survival of myeloma cells by triggering programmed cell death.
# This supports the clinical efficacy of the melarsoprol in patients with multiple myeloma. Indeed, melarsoprol is active at concentrations ranging from 10^-6 to 10^-8 mol/L, which correspond to the in vivo pharmacological concentrations of the drugs.
# [13] = system: secreting multiple myeloma; assay: Bi-central, open, non-comparative study in patients with secreting multiple myeloma; format: in vivo; settings: IV 1mg/kg first day, then 2mg/kg daily, not longer than 56 days
# Method: A bi-central, open, non-comparative study of melarsoprol in patients suffering from secreting multiple myeloma was carried out.
# Patients with secreting multiple myeloma included in the study had been pretreated with and were unresponsive to a minimum of 3 VAD (vincristine-adriamycine-dexamethasone) or VAMP (vincristine-adriamycine-methylprednisolone) chemotherapy regimens.
# Patients are treated daily with co-administration of anti-convulsive and B1 vitamin for 56 days if allowed by toxicity.
# At the first day, the IV solution of melarsoprol (1mg/kg) is administered in 3 intravenous injections.
# The IV solution of melarsoprol (2mg/kg) is then administered daily and for a time period not longer than 56 days in the same manner. […]
# leukemia = settings: IV daily for 3 days, repeated weekly for 3 weeks, 1 to 3,6mg/kg; cited from earlier work
# [14] = 2 days of culture, 10^-6 mol/L, representative bone marrow sample
structure (smiles),measurement,setting,value
"Nc1nc(N)nc(Nc2ccc([As]3SCC(CO)S3)cc2)n1 (stereo not drawn) [melarsoprol, 2-p-[(4,6-diamino-s-triazin-2-yl)amino]phenyl-4-hydroxymethyl-1,3,2-dithiarsoline]",IC50,"LP1 cells [1]; Homo sapiens, LP-1, LP1 cells, growth inhibition",~1000 nM
same,time-dependent inhibition of growth,LP1 cells [1]; LPI cells,significant but less important inhibition of growth
same,time-dependent inhibition of growth,NCI cells [2],marked time-dependent inhibition of growth
same,IC50,"NCI cells [2]; Homo sapiens, 72 hours, cell number and thymidine incorporation, read-out: 50% growth inhibitory concentration (IC50) (converted)",300 nM
same,time-dependent inhibition of growth,OPM2 cells,marked time-dependent inhibition of growth
same,IC50,"OPM2 cells; Homo sapiens, OPM-2, growth inhibition",~100 nM
same,IC50,"U266; Homo sapiens, U-266, growth inhibition",~1000 nM
same,time-dependent inhibition of growth,U266,significant but less important inhibition of growth
same,percentage of trypan blue negative cells,LP1 cells [3],81 ± 6.8%
same,percentage of trypan blue negative cells,NCI,15 ± 7.2%
same,percentage of trypan blue negative cells,OPM2,56 ± 11%
same,DNA fragmentation,NCI cells [4],typical DNA ladders
same,double-negative living cells,NCI cells [5]; at 18 hours,only very few
same,"apoptosis (annexin-positive, PI-negative apoptotic cells)",NCI cells [5]; time period of 48 hours,rapidly induced apoptosis
same,"Annexin-positive, PI-negative apoptotic U266 cells",U266 cells,18 % of residual cells
same,mean decline in cell viability,[6],52.5 ± 17.3%
same,IC50,[7],~100 nM
same,"myeloid cells (CD38^low, CD15 +) positive for the apoptosis marker",[8]; [14],less than 1%
same,CD15+ myelo-monocytic cell percentages versus controls,"[8]; day 5, 10^-6 mol/L",similar
same,plasma cells (CD38^higt +) expressing annexin V,[9]; [14],12%
same,percent CD38-high plasma cells among viable cells at 1 µM,"[9]; Homo sapiens, 120 h, read-out: CD38^higt positive cells among viable cells (propidium iodide negative)",7.8%
same,plasma cell differentiation induced by the mitogen,[10],only slightly inhibited
same,remissions,human myeloma cells; all evaluable experiment,remissions have been achieved
same,level of the HuMIg in mouse serum,human myeloma cells; undetectable in some animals,dramatic decrease
same,toxic lesions in studied organs,[11],no evidence of toxic lesions
same,inhibition of growth,[12],marginal
same,active concentrations,myeloma cells,10^-6 to 10^-8 mol/L
same,Efficiency for treating multiple myeloma and reduced side-effects,[13],verified
same,CNS toxicity,leukemia,excessive CNS (central nervous system) toxicity
same,anti-leukemic activity,leukemia,no major anti-leukemic activity

# — EP1002537A1, “Use of melarsoprol for the manufacture of a medicament for treating B-cell lymphoproliferative diseases, such as multiple myeloma” (ASSISTANCE PUBLIQUE, HOPITAUX DE PARIS, priority 1998, dated 2000)
